Reference: ChEMBL document CHEMBL1134727, “Synthesis and structure-activity relationship of diarylamide derivatives as selective inhibitors of the proliferation of human coronary artery smooth muscle cells” (Bioorg Med Chem Lett, 2001)

Columns and labels:
[1] = Inhibition of human coronary artery smooth muscle cells (SMC's) proliferation, induced by platelet-derived growth factor (PDGF-BB) 20 ng mL.; assay type: functional
[2] = Evaluated for inhibition of proliferation of human coronary artery endothelial cells (ECs), induced by 5 % FBS.; assay type: functional, cell-based; conditions: Endothelial cell
[3] = Ratio of inhibitory activity on proliferation of human coronary artery smooth muscle cells to that of human coronary artery endothelial cells; assay type: functional, Endothelial cell

Question: For COc1cc(C(=O)Nc2ccc(Cl)cc2C(N)=O)cc(OC)c1OC, which IC50 [1] is on record?
Answer: Its IC50 is over 2000 nM.

Question: What does the source list for CCOC(=O)c1ccccc1NC(=O)/C=C/c1ccc(OC)c(OC)c1?
Answer: IC50 [2]: 9500 nM; IC50 [1]: > 50000 nM

Question: Which IC50 [1] does the source give for CCOC(=O)c1cc(OC)c(OC)cc1NC(=O)c1cc(OC(C)=O)c(OC(C)=O)c(OC(C)=O)c1 here?
Answer: Its IC50 is over 2000 nM.

Question: For COc1cc(C(=O)Nc2cc(C)ccc2C(N)=O)cc(OC)c1OC, which IC50 [1] is on record?
Answer: The IC50 was over 2000 nM.

Question: For COc1cc(C(=O)Nc2cc([N+](=O)[O-])ccc2C(N)=O)cc(OC)c1OC, which IC50 [2] is on record?
Answer: The IC50 was under 2000 nM.

Question: What about the IC50 [1] of the same compound?
Answer: Its IC50 is 1600 nM.

Question: With CCOC(=O)c1cc(OC)c(OC)cc1NC(=O)c1ccc(OC(C)=O)c(OC(C)=O)c1 as the compound, how does the IC50 [1] read?
Answer: The IC50 was 2200 nM.

Question: For CCOC(=O)c1cc(OC)c(OC)cc1NC(=O)c1ccc(O)c(N)c1, which IC50 [1] is on record?
Answer: The IC50 was over 2000 nM.

Question: For COc1ccc(C(=O)Nc2cc(OC)c(OC)cc2C(=O)O)cc1OC, which IC50 [1] is on record?
Answer: Its IC50 is over 2000 nM.

Question: With COc1cc(C(=O)Nc2ccccc2C(N)=O)cc(OC)c1OC as the compound, how does the IC50 [1] read?
Answer: The IC50 was over 2000 nM.

Question: For CCOC(=O)c1cc(OC)c(OC)cc1NC(=O)c1ccc(OC(C)=O)c(OC)c1, which IC50 [1] is on record?
Answer: The IC50 was 2800 nM.

Question: With COc1ccc(C(=O)Nc2cc(OC)c(OC)cc2C(N)=O)cc1OC as the compound, how does the IC50 [2] read?
Answer: Its IC50 is over 10000 nM.

Question: And the IC50 [1]?
Answer: Its IC50 is 720 nM.

Question: What about the Ratio [3] of the same compound?
Answer: Its Ratio is over 14.

Question: Which results are given for CCOC(=O)c1cc(OC)c(OC)cc1NC(=O)c1ccc(OC)cc1?
Answer: IC50 [2]: < 2000 nM; IC50 [1]: 610 nM

Question: For COc1ccc(NC(=O)c2ccc(OC)c(OC)c2)cc1OC, which IC50 [1] is on record?
Answer: Its IC50 is over 2000 nM.

Question: With CNC(=O)c1cc(OC)c(OC)cc1NC(=O)c1ccc(OC)c(OC)c1 as the compound, how does the IC50 [1] read?
Answer: The IC50 was over 2000 nM.

Question: Which IC50 [2] does the source give for CCOC(=O)c1cc(OC)c(OC)cc1NC(=O)c1ccccc1OC here?
Answer: The IC50 was 3800 nM.

Question: And the IC50 [1]?
Answer: Its IC50 is 800 nM.

Question: What about the Ratio [3] of the same compound?
Answer: Its Ratio is 5.

Question: For CCOC(=O)c1cc(OC)c(OC)cc1NC(=O)c1ccc(OC)c(OC)c1, which IC50 [2] is on record?
Answer: The IC50 was 6000 nM.

Question: What about the IC50 [1] of the same compound?
Answer: Its IC50 is 850 nM.

Question: What about the Ratio [3] of the same compound?
Answer: The Ratio was 7.

Question: For COc1cc(C(=O)Nc2cc(N)ccc2C(N)=O)cc(OC)c1OC, which IC50 [1] is on record?
Answer: Its IC50 is over 2000 nM.

Question: For COc1ccc(C(=O)Nc2cc(OC)c(OC)cc2C(=O)N(C)C)cc1OC, which IC50 [1] is on record?
Answer: The IC50 was over 2000 nM.

Question: With COc1ccc(C(=O)Nc2cc(OC)c(OC)cc2C#N)cc1OC as the compound, how does the IC50 [1] read?
Answer: The IC50 was over 2000 nM.

Question: With COc1cc(C(=O)Nc2cc(F)c(F)cc2C(N)=O)cc(OC)c1OC as the compound, how does the IC50 [2] read?
Answer: Its IC50 is over 10000 nM.

Question: And the IC50 [1]?
Answer: The IC50 was 2000 nM.

Question: What about the Ratio [3] of the same compound?
Answer: The Ratio was over 5.

Question: Which results are given for CCOC(=O)c1cc(OC)c(OC)cc1NC(=O)c1ccc(OC(C)=O)cc1?
Answer: IC50 [2]: 5200 nM; IC50 [1]: 1300 nM; Ratio [3]: 4

Question: Which results are given for CCOC(=O)c1cc(OC)c(OC)cc1NC(=O)c1ccc(OC)c(OC)c1OC?
Answer: IC50 [2]: 2900 nM; IC50 [1]: 410 nM; Ratio [3]: 7

Question: Which results are given for CCOC(=O)c1cc(OC)c(OC)cc1NC(=O)c1cc(OC)c(OC)c(OC)c1?
Answer: IC50 [2]: 4600 nM; IC50 [1]: 310 nM; Ratio [3]: 15

Question: With CCOC(=O)c1cc(OC)c(OC)cc1NC(=O)c1ccc(O)c([N+](=O)[O-])c1 as the compound, how does the IC50 [2] read?
Answer: The IC50 was 7200 nM.

Question: What about the IC50 [1] of the same compound?
Answer: The IC50 was 1800 nM.

Question: What about the Ratio [3] of the same compound?
Answer: The Ratio was 4.

Question: Which results are given for COc1ccc(/C=C/C(=O)Nc2ccccc2C(N)=O)cc1OC?
Answer: IC50 [2]: 34500 nM; IC50 [1]: 16700 nM; Ratio [3]: 2

Question: With CCOC(=O)c1cc(OC)c(OC)cc1NC(=O)c1cc(OC)c(OC(C)=O)c(OC)c1 as the compound, how does the IC50 [1] read?
Answer: The IC50 was 3100 nM.

Question: For CCOC(=O)c1cc(OC)c(OC)cc1NC(=O)c1cccc(OC)c1, which IC50 [2] is on record?
Answer: Its IC50 is 6100 nM.

Question: And the IC50 [1]?
Answer: Its IC50 is 1600 nM.

Question: And the Ratio [3]?
Answer: The Ratio was 4.

Question: Which results are given for CCOC(=O)c1cc(OC)c(OC)cc1NC(=O)Cc1ccc(OC)c(OC)c1?
Answer: IC50 [2]: 4700 nM; IC50 [1]: 800 nM; Ratio [3]: 6

Question: For CCOC(=O)c1cc(OC)c(OC)cc1NC(=O)/C=C\c1ccc(OC)c(OC)c1, which IC50 [2] is on record?
Answer: The IC50 was 4100 nM.

Question: What about the IC50 [1] of the same compound?
Answer: The IC50 was 1200 nM.

Question: What about the Ratio [3] of the same compound?
Answer: The Ratio was 4.

Question: Which IC50 [2] does the source give for COc1ccc(/C=C/C(=O)Nc2ccccc2C(=O)O)cc1OC [TRANILAST] here?
Answer: The IC50 was 19100 nM.

Question: What about the IC50 [1] of the same compound?
Answer: The IC50 was 24500 nM.

Question: And the Ratio [3]?
Answer: Its Ratio is 0.8.
